From patent publication US20090029970A1, “PAIN REMEDY CONTAINING ROCK INHIBITOR” (Astellas Pharma Inc., priority 2005, published 2009)

Columns and labels:
[1] = tested on: rat MIA-induced osteoarthritis model; test: Analgesic test by assessment of hindlimb weight distribution in monoiodoacetate (MIA)-induced osteoarthritis model; format: in vivo; conditions: for ED50: Rattus norvegicus, read-out: Difference in weight between the right and left hindlimbs of rats: ED50
Protocol: This disease model was prepared according to the description in Toxicol Pathol 31(6), 619-624 (2003). Female SD rats (6-7 weeks old, Charles River Laboratories Japan, Inc.) were anesthetized with halothane (Takeda Pharmaceutical Company, Limited) and given a single intra-articular injection of 1 mg of monosodium iodoacetate (MIA; Sigma, St. Louis) through the infrapatellar ligament of the right knee. MIA was dissolved with physiological saline and administered in a volume of 50 μL using a 27-gauge, 0.5-inch needle. Three weeks after the injection of MIA (establishment of pathology of osteoarthritis), single oral administration of a ROCK inhibitor or diclofenac was given and the weights of both hindlimbs of the rats were determined using an incapacitance tester (Linton Instrumentation, Norfork, UK) 2 hours after administration of the compounds to obtain ED50 values (Table 1).

[2] = tested on: bradykinin-induced joint pain model; test: Pain alleviation effect on bradykinin-induced joint pain model; format: in vivo, rat; conditions: for pain score (0-4): 30 min before bradykinin, decreased from 2.6
Protocol: Preparation of the Joint Pain Model and Evaluation of a Level of Pain were conducted based on the description in Folia pharmacol. japon. 92, 17-27 (1988). Female SD rats (6-7 weeks old, Charles River Laboratories Japan, Inc.) were anesthetized with halothane (Takeda Pharmaceutical Company, Limited) and given a single intra-articular injection of a saline solution of Wf536 or Compound 2 into the knee joint cavity of the hindlimb using a 27-gauge, 0.5-inch needle at a dose of 0.03 μg/site, 0.3 μg/site or 3 μg/site. Thirty minutes after administration of the drug, a physiological saline solution of bradykinin was injected into the knee joint cavity of the hindlimb (3 μM/site/50 μl), then the response to pain of the rat after administration of bradykinin was observed. The level of pain was scored as five grade point (0-4) as follows: 0: no lameness to lameness for 10 seconds; 1: lameness for 10 to 30 seconds; 2: lift of the limb within 10 seconds or lameness for 31 or more seconds; 3: three-legged gait within 10 seconds followed by lameness; and 4: three-legged gait for 10 or more seconds followed by lameness. About 10 rat models were used in each experimental group. It was confirmed that administration of bradykinin leads to response to pain scored as about 3.

[3] = tested on: MIA-induced osteoarthritis model; test: Cartilage damage score of the distal end of the tibia in MIA-induced osteoarthritis model; format: in vivo, rat; conditions: for score of morphological change of the distal end of the tibia (0-4): three weeks after injection, decreased from 3
Protocol: This disease model was prepared according to the description in Toxicol Pathol 31 (6), 619-624 (2003). Female SD rats (6-7 weeks old, Charles River Laboratories Japan, Inc.) were anesthetized with halothane (Takeda Pharmaceutical Company, Limited) and given a single intra-articular injection of 1 mg of monosodium iodoacetate (MIA; Sigma, St. Louis) through the intrapatellar ligament of the right knee. MIA was dissolved with physiological saline and administered in a volume of 50 μL using a 27-gauge, 0.5-inch needle. Three weeks after the injection, a tibia was isolated and morphological change of the distal end of the tibia was scored (0-4; FIG. 1). About 8 rats were used for each group. Three weeks after the injection of MIA, cartilage damage of about score 3 was confirmed. Wf536 or Compound 2 was injected intra-articularly at a concentration of 0.03 μg/site, 0.3 μg/site or 3 μg/site 2 times a week (every 2 to 3 days) from the day of administration of MIA. […] 0: no damage; 1: damage on the surface of cartilage; 2: cartilage degradation; 3: cartilage degradation and subchondral bone damage; 4: cartilage degradation, subchondral bone damage and spur formation.

[4] = female SD rats, single oral administration three weeks after MIA injection, measured 2 hours after administration

## NC(=O)c1cc(F)c(N[C@H]2CC[C@H](N)CC2)cc1F [Compound 1, 4-[(trans-4-aminocyclohexyl)amino]-2,5-difluorobenzamide]
[1]; [4]
  ED50: < 10 mg/kg

## NC(=O)c1cc(Cl)c(N[C@H]2CC[C@H](N)CC2)cc1F [Compound 2, 4-[(trans-4-aminocyclohexyl)amino]-5-chloro-2-fluorobenzamide]
[2]; single intra-articular injection 0.3 μg/site
  pain score (0-4): 1.1
[3]; intra-articular 0.3 μg/site 2 times a week from the day of MIA
  score of morphological change of the distal end of the tibia (0-4): 2.3
[1]; [4]
  ED50: < 10 mg/kg

## CC(C)(N)c1ccc(-c2ccc3[nH]ncc3c2)cc1.Cl.Cl [Compound 3, 2-[4-(1H-indazol-5-yl)phenyl]-2-propanamine dihydrochloride]
[1]; [4]
  ED50: < 10 mg/kg

## O=C(O)Cc1ccccc1Nc1c(Cl)cccc1Cl [Diclofenac]
[1]; [4]
  ED50: > 30 mg/kg
[1]; single dose given after establishment of the disease in the rat MIA-induced osteoarthritis model
  efficacy on pain (in words): ineffective

## Cl.O=S(=O)(c1cccc2cnccc12)N1CCCNCC1 [Fasudil, 5-(hexahydro-1H-1,4-diazepin-1-ylsulfonyl)isoquinoline hydrochloride]
[1]; [4]
  ED50: < 10 mg/kg

## C[C@@H](N)c1ccc(C(=O)Nc2ccncc2)cc1.Cl [Wf536, 4-[(1R)-1-aminoethyl]-N-(4-piridyl)benzamide monohydrochloride]
[2]; intra-articular 0.03, 0.3 or 3 μg/site
  response to pain (in words): dose-dependently improved the response to pain
[2]; single intra-articular injection 3 μg/site
  pain score (0-4): 1.2
[3]; intra-articular 3 μg/site 2 times a week from the day of MIA
  score of morphological change of the distal end of the tibia (0-4): 2.2
[3]; intra-articular 0.03, 0.3 or 3 μg/site 2 times a week, three weeks
  MIA-induced cartilage damage (in words): dose-dependently improved the MIA-induced cartilage damage
[1]; [4]
  Difference in weight between the right and left hindlimbs of rats: ED50: <30 mg/kg
